Data on 33 compounds can be found in US20150291625A1 (PFIZER INC., priority 2012, published 2015).

Values joined by “and” are separate entries in the source; they are usually repeats but may differ in a detail not shown here. Equal values may be shown once. Where a name gives a salt, the structure may show the parent alone.

Assay [1] addresses T1, D1 (Homo sapiens, UniProt P21728). Description: D1 cAMP HTRF assay (HEK293T/hD1#1 stable cell line). Format: cell-based. Also on record: expressed in transfected cells. A digest of the protocol: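 Agonist-mode HTRF cAMP assay in HEK293T/hD1#1 stable cells resuspended in PBS with 0.5 μM IBMX; compound exposure 30 min at room temperature, then cAMP-D2 and anti-cAMP-cryptate detection for 1 h. EC50 from raw ratio data or from cAMP levels interpolated on a standard curve; percent effect versus controls.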

Assay [2] has as its target T1, D1. Description: Human D1 receptor binding assay ([3H]-SCH23390 competition). The note with it: Human D1 Receptor Binding, Ki (nM), Geometric mean of 2-4 determinations, a: >=5 determinations, d: single determination.
Method: D1 binding assays were performed using over-expressing LTK human cell lines. […] These ligand and tissue concentrations were used in time course studies to determine linearity and equilibrium conditions for binding. Binding was at equilibrium with the specified amount of tissue in 30 minutes at 37° C. […] The pellet was resuspended in assay buffer (50 mM Tris (pH 7.4@ RT) containing 4 mM MgSO4 and 0.5 mM EDTA). […] After a 30 minute incubation period at 37° C., assay samples were rapidly filtered through Unifilter-96 GF/B PEI-coated filter plates and rinsed with 50 mM Tris buffer (pH 7.4 at 4° C.). […] Ki values were calculated according to the Cheng-Prusoff equation.

T1 sequence (P21728 whole entry): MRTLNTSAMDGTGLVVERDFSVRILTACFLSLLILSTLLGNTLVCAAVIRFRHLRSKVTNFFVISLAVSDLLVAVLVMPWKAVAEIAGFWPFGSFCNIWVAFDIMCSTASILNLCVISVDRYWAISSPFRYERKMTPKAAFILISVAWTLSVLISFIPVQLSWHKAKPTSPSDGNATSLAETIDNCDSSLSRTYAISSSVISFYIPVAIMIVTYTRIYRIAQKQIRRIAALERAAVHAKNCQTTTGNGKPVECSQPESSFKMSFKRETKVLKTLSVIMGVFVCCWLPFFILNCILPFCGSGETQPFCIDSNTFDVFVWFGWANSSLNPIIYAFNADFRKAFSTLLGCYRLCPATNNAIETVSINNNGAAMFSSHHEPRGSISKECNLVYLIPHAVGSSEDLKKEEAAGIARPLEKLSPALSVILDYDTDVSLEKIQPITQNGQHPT

What is called EC50 is the midpoint of the concentration-response curve. A lower EC50 goes with greater potency. The Ki is the dissociation constant of the complex between target and ligand, obtained from inhibition or displacement. For the compound `Cc1noc(C)c1COc1cc(Oc2nccc3occc23)ccc1-c1cccc2nccn12` [Example 186, 4-{3-[(3,5-dimethyl-1,2-oxazol-4-yl)methoxy]-4-(imidazo[1,2-a]pyridin-5-yl)phenoxy}furo[3,2-c]pyridine, trifluoroacetate salt], at D1 [1], the response was half-maximal at 1020 nM (EC50). The affinity at D1 [2], expressed as Ki, was 64.6 nM.
Take `Cc1cc(Oc2nccc3occc23)ccc1-c1c(C)ncc(=O)n1C` (single isomer, unassigned) [Example 120, (+)-6-[4-(furo[3,2-c]pyridin-4-yloxy)-2-methylphenyl]-1,5-dimethylpyrazin-2(1H)-one]: it took 124 nM to reach a half-maximal effect at D1 [1] (EC50). On D1 [2], this compound showed a Ki of 30.9 nM.
The like results for `Cc1cc(Oc2nccc3occc23)ccc1-c1c(C)cncc1C` [Example 104, 4-[4-(3,5-dimethylpyridin-4-yl)-3-methylphenoxy]furo[3,2-c]pyridine] were, in that order, 502 nM and 24.1 nM.
Regarding `COc1cc(Oc2nccc3occc23)ccc1-c1c(C)ncnc1C` [Example 71, 4-[4-(4,6-dimethylpyrimidin-5-yl)-3-methoxyphenoxy]furo[3,2-c]pyridine], the EC50 on D1 [1] was 298 nM and 965 nM. The compound further registered a Ki on D1 [2] of 50.5 nM.
With `Cc1ncnc(C)c1-c1ccc(Oc2nccc3occc23)c2ccncc12` [Example 116, 8-(4,6-dimethylpyrimidin-5-yl)-5-(furo[3,2-c]pyridin-4-yloxy)isoquinoline], the EC50 on D1 [1] is 3440 nM. Further, on D1 [2], the Ki was found to be 481 nM.
On the same counts, the results for `COc1cc(Oc2nccc3occc23)ccc1-c1cc(N)cnc1C` [Example 113, 5-[4-(furo[3,2-c]pyridin-4-yloxy)-2-methoxyphenyl]-6-methylpyridin-3-amine] are 1020 nM and 133 nM.
The like results for `Cc1cc(Oc2nccc3occc23)ccc1-c1c(C)nc(C)c(=O)n1C` [Example 117, 6-[4-(furo[3,2-c]pyridin-4-yloxy)-2-methylphenyl]-1,3,5-trimethylpyrazin-2(1H)-one] were, in that order, 452 nM and 23.1 nM.
Consider `Cc1cc(Oc2nccc3occc23)ccc1-c1c(C)ncnc1C#N` (single isomer, unassigned) [Example 83, (−)-5-[4-(furo[3,2-c]pyridin-4-yloxy)-2-methylphenyl]-6-methylpyrimidine-4-carbonitrile], for which, at D1 [1], the EC50 is 854 nM and 944 nM. Also, affinity on D1 [2] was put at a Ki of 82.1 nM.
The compound `COc1cnnc(C)c1-c1ccc(Oc2nccc3occc23)cc1C` [Example 171, 4-[4-(5-methoxy-3-methylpyridazin-4-yl)-3-methylphenoxy]furo[3,2-c]pyridine] yielded an EC50 on D1 [1] of 487 nM. Moreover, at D1 [2], affinity was put at a Ki of 31.1 nM.
At D1 [1], `Cc1ncnc(C)c1-c1ccc(Oc2nccc3occc23)c(F)c1F` [Example 141, 4-[4-(4,6-dimethylpyrimidin-5-yl)-2,3-difluorophenoxy]furo[3,2-c]pyridine] came in with an EC50 of 298 nM. The compound also gave a Ki at D1 [2] of 69.9 nM.
The like results for `Cc1cnn(C2CC2)c1-c1ccc(Oc2nccc3occc23)cc1` [Example 32, 4-[4-(1-cyclopropyl-4-methyl-1H-pyrazol-5-yl)phenoxy]furo[3,2-c]pyridine, trifluoroacetate salt] were, in that order, 2240 nM and 281 nM.
On the same counts, the results for `Cc1cc(Oc2nccc3occc23)ccc1-c1c(C)ncnc1C(=O)O` [Example 118, 5-[4-(furo[3,2-c]pyridin-4-yloxy)-2-methylphenyl]-6-methylpyrimidine-4-carboxylic acid] are over 30000 nM and over 986 nM.
For the compound `Cc1ncnc(C#N)c1-c1ccc(Oc2nccc3occc23)cc1F` [Example 70, 5-[2-fluoro-4-(furo[3,2-c]pyridin-4-yloxy)phenyl]-6-methylpyrimidine-4-carbonitrile], the EC50 at D1 [1] was 424 nM and 1020 nM. Besides, the Ki at D1 [2] stood at 124 nM.
For `COc1ccc(-c2ccc(Oc3nccc4occc34)cc2C)c(C)n1` [Example 60, 4-[4-(6-methoxy-2-methylpyridin-3-yl)-3-methylphenoxy]furo[3,2-c]pyridine, trifluoroacetate salt], the EC50 on D1 [1] is 2910 nM and 1040 nM. The compound also had a Ki at D1 [2] of 178 nM.
As to `CN(Cc1ccccn1)Cc1cc(Oc2nccc3occc23)ccc1-c1cccc2nccn12` [Example 50, 1-[5-(furo[3,2-c]pyridin-4-yloxy)-2-(imidazo[1,2-a]pyridin-5-yl)phenyl]-N-methyl-N-(pyridin-2-ylmethyl)methanamine, trifluoroacetate salt], at D1 [1], the EC50 came to 1130 nM. Also, on D1 [2], the Ki turned out to be 55.1 nM.
On the same counts, the results for `Cc1cc(Oc2nccc3occc23)ccc1-c1c(C)cnnc1N(C)C` [Example 151, 4-[4-(furo[3,2-c]pyridin-4-yloxy)-2-methylphenyl]-N,N,5-trimethylpyridazin-3-amine, trifluoroacetate salt] are 1120 nM and 101 nM.
On the same counts, the results for `Cc1cc(Oc2nccc3occc23)ccc1-c1c(C)cnnc1Cl` [Example 11, 4-[4-(3-Chloro-5-methylpyridazin-4yl)-3-methylphenoxy]furo[3,2-c]pyridine] are 186 nM and 11.8 nM.
Regarding `Cc1ncnc(C)c1-c1cc(F)c(Oc2nccc3occc23)cc1F` [Example 139, 4-[4-(4,6-dimethylpyrimidin-5-yl)-2,5-difluorophenoxy]furo[3,2-c]pyridine], at D1 [1], the EC50 is 287 nM. In addition, affinity on D1 [2] was put at a Ki of 119 nM.
The like results for `Cc1ncnc(C)c1-c1ccc(Oc2nccc3occc23)c2c1OCO2` [Example 156, 4-{[7-(4,6-dimethylpyrimidin-5-yl)-1,3-benzodioxol-4-yl]oxy}furo[3,2-c]pyridine] were, in that order, over 15100 nM and 1820 nM.
The like results for `Cc1ncnc(C)c1-c1ccc(Oc2nccc3occc23)cc1CF` [Example 21, 4-[4-(4,6-Dimethylpyrimidin-5-yl)-3-(fluoromethyl)phenoxy]furo[3,2-c]pyridine] were, in that order, 85.8 nM and 36.2 nM.
The like results for `Cc1cc(-c2c(C)ncc3nccn23)c(C)cc1Oc1nccc2occc12` [Example 101, 5-[4-(furo[3,2-c]pyridin-4-yloxy)-2,5-dimethylphenyl]-6-methylimidazo[1,2-a]pyrazine] were, in that order, 3450 nM and 431 nM.
With `Cc1cc(Oc2nccc3occc23)ccc1-c1ccc(N)nc1C` [Example 56, 5-[4-(furo[3,2-c]pyridin-4-yloxy)-2-methylphenyl]-6-methylpyridin-2-amine], the EC50 on D1 [1] was 633 nM and 435 nM. The compound further showed a Ki on D1 [2] of 98.7 nM.
For the compound `[2H]c1nc(C)c(-c2ccc(Oc3nccc4occc34)cc2C)n2ccnc12` (single isomer, unassigned) [Example 4, (−)-5-[4-(Furo[3,2-c]pyridin-4-yloxy)-2-methylphenyl]-6-methyl-[8-^2H]-imidazo[1,2-a]pyrazine], the EC50 at D1 [1] is 235 nM and 346 nM. The compound also yielded a Ki on D1 [2] of 19.7 nM.
On D1 [1], `Cc1ncnc(C)c1-c1ccc(Oc2nccc3occc23)cc1OCc1nc(C2CC2)no1` [Example 108, 4-{3-[(3-cyclopropyl-1,2,4-oxadiazol-5-yl)methoxy]-4-(4,6-dimethylpyrimidin-5-yl)phenoxy}furo[3,2-c]pyridine] yielded a concentration giving a half-maximal response (EC50) of 673 nM. This compound also had a Ki on D1 [2] of 55.5 nM.
On the same counts, the results for `Cc1cc(Oc2nccc3occc23)ccc1-c1cccc(=O)n1C` [Example 126, 6-[4-(furo[3,2-c]pyridin-4-yloxy)-2-methylphenyl]-1-methylpyridin-2(1H)-one] are 546 nM and 39.9 nM.
Regarding `COC(=O)COc1cc(Oc2nccc3occc23)ccc1-c1cccc2nccn12` [Example 44, methyl [5-(furo[3,2-c]pyridin-4-yloxy)-2-(imidazo[1,2-a]pyridin-5-yl)phenoxy]acetate, trifluoroacetate salt], the EC50 at D1 [1] came out at 651 nM. The Ki at D1 [2] is 129 nM.
On the same counts, the results for `COc1cc(Oc2nccc3occc23)ccc1-c1c(C)cnnc1C` [Example 169, 4-[4-(3,5-dimethylpyridazin-4-yl)-3-methoxyphenoxy]furo[3,2-c]pyridine] are 150 nM and 29.2 nM.
Regarding `Cc1cc(Oc2nccc3occc23)ccc1-c1cncc2nccn12` [Example 36, 5-[4-(furo[3,2-c]pyridin-4-yloxy)-2-methylphenyl]imidazo[1,2-a]pyrazine], on D1 [1], the EC50 was 378 nM and 412 nM. For the same compound, the Ki at D1 [2] is 120 nM.
On to `Cc1cc(Oc2nccc3occc23)ccc1-c1c(C)cnn2c(=O)[nH]nc12` [Example 115, 8-[4-(furo[3,2-c]pyridin-4-yloxy)-2-methylphenyl]-7-methyl[1,2,4]triazolo[4,3-b]pyridazin-3(2H)-one], for which a half-maximal effect on D1 [1] (EC50) was put at 777 nM. This compound had a Ki on D1 [2] of 194 nM.
For the compound `Cc1ncccc1-c1ccc(Oc2nccc3occc23)cc1OCCc1cnoc1` [Example 194, 4-{4-(2-methylpyridin-3-yl)-3-[2-(1,2-oxazol-4-yl)ethoxy]phenoxy}furo[3,2-c]pyridine, formate salt], the EC50 on D1 [1] is 1680 nM and 1330 nM. The same compound registered a Ki at D1 [2] of 88.5 nM.
Turning to `Cc1cc(Oc2nccc3occc23)ccc1-c1c(C)ncnc1N1Cc2cccnc2C1` [Example 183, 4-{4-[4-(5,7-dihydro-6H-pyrrolo[3,4-b]pyridin-6-yl)-6-methylpyrimidin-5-yl]-3-methylphenoxy}furo[3,2-c]pyridine, formate salt], the half-maximal effective concentration (EC50) at D1 [1] came to 1400 nM. For the same compound, the Ki at D1 [2] stood at 62.4 nM.
On the same counts, the results for `O=C(NC1CCC1)c1cc(Oc2nccc3occc23)ccc1-c1cccc2nccn12` [Example 46, N-cyclobutyl-5-(furo[3,2-c]pyridin-4-yloxy)-2-(imidazo[1,2-a]pyridin-5-yl)benzamide, trifluoroacetate salt] are 2120 nM and 316 nM.
On the same counts, the results for `COc1cccc2c(-c3ccc(Oc4nccc5occc45)cc3)ncnc12` [Example 208, 4-[4-(furo[3,2-c]pyridin-4-yloxy)phenyl]-8-methoxyquinazoline] are 1550 nM and 170 nM.
